The values that follow come from patent publication US20210253595A1, “2-Aminopyrimidine Derivative and Preparation Method and Use Thereof” (Etern Biopharma (Shanghai) Co., Ltd., priority 2018, published 2021).

The target in one experiment is IDH1 R132C (Homo sapiens, UniProt O75874, R132C). Put plainly: Effect on IDH1 R132C enzyme activity (NADPH consumption, diaphorase/resazurin fluorescence). The format is biochemical. As to conditions: 80 ng IDH1 R132C, α-KG 2 mM, NADPH 20 μM, 60 min preincubation. As for the experimental part: (§1) Test method: The enzyme activity of IDH1 converting α-KG to 2HG was measured by the consumption of NADPH. After the enzymatic reaction finished, the amount of residual NADPH can be reflected by fluorescence signal generated by the addition of catalytically excessive diphhorase and reazurin.
50 μL mixed liquid of substrate α-KG and NADPH (final concentration of substrate α-KG was 2 mM, final concentration of NADPH was 20 μM), and the plate was incubated in dark for 60 min at room temperature. Detection reaction: 50 μL 1×detection buffer diluted 0.01 unit diabase and 30 μM resazurin were added into each well, and the mixture was incubated in dark at room temperature for 10 min. […] IC50 value was calculated by GraphPad Prism software.

The test system of experiment [1] is 2HG of fibrosarcoma cell line HT1080 expressing IDH1 mutant IDH1-R132C. Put plainly: Inhibition of 2HG of fibrosarcoma cell line HT1080. It is filed as cell-based. To be noted: Homo sapiens, HT-1080; HT1080 cells, 48 hours with compound, 2HG in cell supernatant; read-out: HT1080 2HG inhibitory IC50. As to the method:
In this experiment, the inhibitory activity of the compound of the disclosure on the concentration level of 2HG of the fibrosarcoma cell line HT1080 was determined by the following method.
The cells were digested with trypsin and inoculated into a 24 well cell culture plate with a density of 10000 cells/well. The cells were cultured in a 5% CO2 cell incubator at 37° C. After overnight culture, the test compound was added to the cells. The final concentration of DMSO was 0.1%, and DMSO was used as control. The plate was then placed in a cell incubator and cultured for 48 hours.
Detection of 2HG: 2-HG was measured by PicoProbe™ D-2-Hydroxyglutarate (D2HG) Assay Kit of BioVision. 500 uL cell supernatant was taken from each well and added to a 10 kD centrifuge column, 12000 g, and centrifuged for 10 minutes to remove the effect of enzyme activity. […] IC50 value was calculated by GraphPad Prism software.
The inhibition rate of the sample was obtained by the following formula: […]
IC50 value was calculated by GraphPad Prism software.

For the next experiment, the target named is IDH1 R132H (Homo sapiens, UniProt O75874, R132H). Put plainly: Effect on IDH1 R132H enzyme activity (NADPH consumption, diaphorase/resazurin fluorescence). To be noted: 100 ng IDH1 R132H, α-KG 1 mM, NADPH 20 μM, 60 min preincubation. It is filed as biochemical. As for the experimental part: as §1
50 μL mixed liquid of substrate α-KG and NADPH (final concentration of substrate α-KG was 1 mM, final concentration of NADPH was 20 μM), and the mixture was incubated in dark for 60 min at room temperature. Detection reaction: 50 μL 1×detection buffer diluted 0.01 unit diabase and 30 μM resazurin were added into each well, and the mixture was incubated in dark at room temperature for 10 min. […] IC50 value was calculated by GraphPad Prism software.

IDH1 R132H, sequence (O75874 whole entry R132H): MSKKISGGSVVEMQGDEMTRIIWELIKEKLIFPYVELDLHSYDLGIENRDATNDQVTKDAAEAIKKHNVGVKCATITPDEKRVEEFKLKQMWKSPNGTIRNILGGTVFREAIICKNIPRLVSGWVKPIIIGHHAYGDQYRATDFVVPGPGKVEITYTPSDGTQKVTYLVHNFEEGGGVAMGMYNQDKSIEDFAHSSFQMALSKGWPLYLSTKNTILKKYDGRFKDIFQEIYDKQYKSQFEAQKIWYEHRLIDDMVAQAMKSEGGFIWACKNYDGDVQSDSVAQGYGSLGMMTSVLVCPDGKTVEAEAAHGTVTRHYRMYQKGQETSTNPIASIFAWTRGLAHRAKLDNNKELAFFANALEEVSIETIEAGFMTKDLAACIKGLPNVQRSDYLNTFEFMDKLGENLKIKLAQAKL
IDH1 R132C, sequence (O75874 whole entry R132C): as the sequence (O75874 whole entry R132H) above, with H132C counted along it

A word on the IC50: it is the concentration needed to halve the response being measured. In the case of `CC(C)[C@@H]1N(c2ccnc(N[C@@H](C)c3ncn4c3CCc3cc(C(F)(F)F)ccc3-4)n2)C(=O)OC1(C)C` [Compound 18, (S)-4-isopropyl-5,5-dimethyl-3-(2-(((S)-1-(7-trifluoromethyl-4,5-dihydroimidazo[1,5-a]quinolin-3-yl)ethyl)amino)pyrimidin-4-yl)oxazolidin-2-one], the IC50 against IDH1 R132C is less than 50 nM; in experiment [1], 26 nM; against IDH1 R132H, 50 to 500 nM.
The matching figures for `CC(C)[C@H]1C(C)OC(=O)N1c1ccnc(N[C@@H](C)c2ncn3c2CCc2cc(C(F)(F)F)ccc2-3)n1` (stereo partly drawn) [Compound 17, (4S)-4-isopropyl-5-methyl-3-(2-(((S)-1-(7-trifluoromethyl-4,5-dihydroimidazo[1,5-a]quinolin-3-yl)ethyl)amino)pyrimidin-4-yl)oxazolidin-2-one]: less than 50 nM, 87 nM and less than 50 nM.
The matching figures for `C[C@H](Nc1nccc(N2C(=O)OC[C@@H]2c2ccccc2)n1)c1ncn2c1CCc1cc(C(F)(F)F)ccc1-2` [Compound 20, (S)-4-phenyl-3-(2-(((S)-1-(7-trifluoromethyl-4,5-dihydroimidazo[1,5-a]quinolin-3-yl)ethyl)amino)pyrimidin-4-yl)oxazolidin-2-one]: less than 50 nM, 7 nM and less than 50 nM.
The matching figures for `CC(C)[C@H]1COC(=O)N1c1ccnc(N[C@@H](C)c2ncn3c2CCCc2cc(C(F)(F)F)ccc2-3)n1` [Compound 9, (S)-4-isopropyl-3-(2-(((S)-1-(8-trifluoromethyl-5,6-dihydro-4H-benzo[f]imidazo[1,5-a]azepin-3-yl)ethyl)amino)pyrimidin-4-yl)oxazolidin-2-one]: less than 50 nM, 45 nM and 50 to 500 nM.
`C[C@H](Nc1nccc(N2C(=O)OC[C@@H]2C2CC2)n1)c1ncn2c1COc1cc(Cl)ccc1-2` [Compound 22, (S)-3-(2-(((S)-1-(7-chloro-4H-benzo[b]imidazo[1,5-d][1,4]oxazin-3-yl)ethyl)amino)pyrimidin-4-yl)-4-cyclopropyloxazolidin-2-one]: the IC50 is less than 50 nM against IDH1 R132C, 104 nM in experiment [1] and 50 to 500 nM at IDH1 R132H.
The matching figures for `C[C@H](Nc1nccc(N2C(=O)OC[C@@H]2[C@H](C)F)n1)c1ncn2c1CSc1cc(C(F)(F)F)ccc1-2` [Compound 21, (R)-4-((S)-1-fluoroethyl)-3-(2-(((S)-1-(7-trifluoromethyl-4H-benzo[b]imidazo[1,5-d][1,4]thiazin-3-yl)ethyl)amino)pyrimidin-4-yl)oxazolidin-2-one]: less than 50 nM, 17 nM and less than 50 nM.
The matching figures for `C[C@H](Nc1nccc(N2C(=O)OC[C@@H]2[C@H](C)F)n1)c1ncn2c1COc1cc(C(F)(F)F)ccc1-2` [Compound 2, (R)-4-((S)-1-fluoroethyl)-3-(2-(((S)-1-(7-trifluoromethyl-4H-benzo[b]imidazo[1,5-d][1,4]oxazin-3-yl)ethyl)amino)pyrimidin-4-yl)oxazolidin-2-one]: less than 50 nM, 12 nM and less than 50 nM.
Take `C[C@H](Nc1nc(Cl)cc(N2C(=O)OC[C@@H]2[C@H](C)F)n1)c1ncn2c1CCc1cc(C(F)(F)F)ccc1-2` [Compound 7, (R)-3-(6-chloro-2-(((S)-1-(7-trifluoromethyl-4,5-dihydroimidazo[1,5-a]quinolin-3-yl)ethyl)amino)pyrimidin-4-yl)-4-((S)-1-fluoroethyl)oxazolidin-2-one]: the values for the IC50 (on IDH1 R132C; in experiment [1]; on IDH1 R132H) were less than 50 nM, 35 nM and less than 50 nM, respectively.
On to `C[C@H](Nc1nccc(N2C(=O)OC[C@@H]2[C@H](C)F)n1)c1ncn2c1COc1cc(Cl)ccc1-2` [Compound 1, (R)-3-(2-((S)-1-(7-chloro-4H-benzo[b]imidazo[1,5-d][1,4]oxazin-3-yl)ethylamino)pyrimidin-4-yl)-4-((S)-1-fluoroethyl)oxazolidin-2-one], for which the IC50 at IDH1 R132C is less than 50 nM; in experiment [1], 60 nM; on IDH1 R132H, less than 50 nM.
Regarding `C[C@H](Nc1nccc(N2C(=O)OC[C@@H]2[C@H](C)F)n1)c1ncn2c1sc1cc(C(F)(F)F)ccc12` [Compound 8, (R)-4-((S)-1-fluoroethyl)-3-(2-(((S)-1-(6-trifluoromethylbenzo[d]imidazo[5,1-b]thiazol-3-yl)ethyl)amino)pyrimidin-4-yl)oxazolidin-2-one], the IC50 was less than 50 nM on IDH1 R132C, 10 nM in experiment [1] and less than 50 nM against IDH1 R132H.
On to `C[C@H](Nc1nccc(N2C(=O)OC[C@@H]2[C@H](C)F)n1)c1ncn2c1CCc1cc(Cl)ccc1-2` [Compound 4, (R)-3-(2-(((S)-1-(7-chloro-4,5-dihydroimidazo[1,5-a]quinolin-3-yl)ethyl)amino)pyrimidin-4-yl)-4-((S)-1-fluoroethyl)oxazolidin-2-one], for which the figures for the IC50 (against IDH1 R132C; in experiment [1]; against IDH1 R132H) were less than 50 nM, 54 nM and less than 50 nM, respectively.
Consider `C[C@H](Nc1nccc(N2C(=O)OC[C@@H]2[C@H](C)F)n1)c1ncn2c1CCc1ccc(C(F)(F)F)cc1-2` [Compound 28, (R)-4-((S)-1-fluoroethyl)-3-(2-(((S)-1-(8-trifluoromethyl-4,5-dihydroimidazo[1,5-a]quinolin-3-yl)ethyl)amino)pyrimidin-4-yl)oxazolidin-2-one], for which the IC50 against IDH1 R132C is less than 50 nM; in experiment [1], 13 nM; on IDH1 R132H it was less than 50 nM.
